Reference: US20170100489A1, “POLYETHYLENE GLYCOL-MODIFIED INTEGRIN BLOCKER HM-3 AND USE THEREOF” (HANMEI XU, priority 2012, published 2017)
Read-outs that look alike come from different tables or passages of the source. Marks after values point to notes of the source that are not given here. Where no end group is shown, it is not given here. mPEG‑SC20k = methoxy polyethylene glycol-succinimidyl-carbonate, 20000 Da

Tests used:
[1] = molecular target: T1, integrin α5β1 (Homo sapiens, UniProt P05556+P08648); assay: Combination with targets through flow cytometry (FITC labeled polypeptide, function-blocking antibody); type: binding; conditions: Bel-7402 and MCF-7 cells, 2 mg/ml, FIG. 1
T1 construct: Bel-7402 tumor cells and MCF-7 fusion cultured to 80%; endogenous in cells; host or cells: Bel-7402 and MCF-7 tumor cells
Procedure: (§1) • (1) Bel-7402 tumor cells and MCF-7 fusion cultured to 80% after the 24-well plate, trypsinized collected, washed with ice-cold PBS twice, the cells were labeled prior containing 1% BSA resuspended in PBS 30 min. • (2) 2 μl mouse anti-human ανβ3 function-blocking monoclonal antibody (1.0 μg/μl, 1:200), mouse anti-human 2 μl α5β1 function-blocking monoclonal antibody (1.0 μg/μl, 1:200) and the cell suspension were incubated at 4° C. 1.5 h. • (3) collected the labeled cells and washed with ice-cold PBS twice, followed by 100 μl FITC labeled polypeptide modified mPEG-SC20k-HM-3 (2 mg/ml) and the cell suspension were incubated at 4° C. incubate 1.5 h • (4) After labeled, the cells were collected and washed with ice-cold PBS 2 times, followed by resuspension with 400 μl PBS and analyzed by flow cytometry, and detected intensity of the FITC fluorescence through channel FL1.

[2] = molecular target: T2, integrin ανβ3 (Homo sapiens, UniProt P05106+P06756); assay: as above; type: binding; conditions: Bel-7402 and MCF-7 cells, 2 mg/ml, FIG. 1
T2 construct: Bel-7402 tumor cells and MCF-7 fusion cultured to 80%; endogenous in cells; host or cells: Bel-7402 and MCF-7 tumor cells
Procedure: as §1

[3] = system: human esophageal cancer Ec109 xenograft tumors; type: in vivo, nude mice; conditions: for Rate of inhibiting tumors / Tumor weight: Once 3 days
Procedure: Tumor diameter was measured with a vernier caliper. […] Tumor volume formula: […]
a, b respectively represent the length and width. […] The formula is as follows: […]
TRTV: Treatment Group RTV; CRTV: Negative Control Group RTV

[4] = system: human kidney cancer A498 xenograft tumors; assay: Tumor growth inhibition, A498 xenograft; conditions: for Rate of inhibiting tumors / Tumor weight: Once 3 days
Procedure: Human kidney cancer A498 cell lines in logarithmic growth phase were picked and made into 5×10^7/ml cell suspension of under sterile conditions, and then 0.1 ml suspension was inoculated subcutaneously at the right armpit of nude mice. Tumor diameter was measured with a vernier caliper. The animals which had tumors with a size of 100-200 mm^3 were randomly divided into groups. The effect of polypeptide on anti-tumor was dynamically observed through the method of measuring tumor diameter. The times of measuring tumor diameter were once 2 days, and meantime, weighed mice. The mice in experimental group were infused polypeptide through tail vein. The mice in the placebo group were injected saline with the same volume, once 1 day; Taxol group: 10 mg/kg, once 1 week; Endostar group: 2.5 mg/kg, once 1 day; The groups of high, intermediate and low polypeptide: 6, 3, 1.5 mg/kg, respectively, once 1 day. After administration, all mice were sacrificed. Stripped the tumors and weighed.

[5] = system: human testicular cancer 5637 xenograft tumors; assay: Tumor growth inhibition, 5637 xenograft; conditions: for Rate of inhibiting tumors / Tumor weight: Once 3 days
Procedure: Human testicular cancer 5637 cell lines in logarithmic growth phase were picked, and made into 5×10^7/ml cell suspension of under sterile conditions, and then 0.1 ml suspension was inoculated subcutaneously at the right armpit of nude mice. Tumor diameter was measured with a vernier caliper. The animals which had tumors with a size of 100-200 mm^3 were randomly divided into groups. The effect of polypeptide on anti-tumor was dynamically observed through the method of measuring tumor diameter. The times of measuring tumor diameter were once 2 days, and meantime, weighed mice. The mice in experimental group were infused polypeptide through tail vein. […] After administration, all mice were sacrificed. Stripped the tumors and weighed.

[6] = system: human colon cancer HT-29 xenograft tumors; assay: Tumor growth inhibition, HT-29 xenograft; conditions: for Rate of inhibiting tumors / Tumor weight: Once 3 days
Procedure: Human colon cancer HT-29 cell lines in logarithmic growth phase were picked, and made into 5×10^7/ml cell suspension of under sterile conditions, and then 0.1 ml suspension was inoculated subcutaneously at the right armpit of nude mice. Tumor diameter was measured with a vernier caliper. The animals which had tumors with a size of 100-200 mm^3 were randomly divided into groups. The effect of polypeptide on anti-tumor was dynamically observed through the method of measuring tumor diameter. The times of measuring tumor diameter were once 2 days, and meantime, weighed mice. The mice in experimental group were infused polypeptide through tail vein. The mice in the placebo group were injected saline with the same volume, once 1 day; Taxol group: 10 mg/kg, once 1 week; Endostar group: 2.5 mg/kg, once 1 day; The groups of high, intermediate and low polypeptide: 6, 3, 1.5 mg/kg, respectively, once 1 day. After administration, all mice were sacrificed. Stripped the tumors and weighed.

[7] = Pharmacokinetics of mPEG-SC20k-HM-3 and HM-3 in rats (plasma concentration by ELISA); conditions: SD rats, intravenous
Procedure: SD rats were randomly divided into six groups with the same number for male and female. Take three groups were administered intravenously integrin antagonist polypeptide with a high dose of 52 mg/kg (equivalent to HM-3 4.2 mg/kg), an intermediate dose of 26 mg/kg (equivalent to HM-3 2.1 mg/kg), a low-dose of 13 mg/kg (equivalent to HM-3 1.05 mg/kg). The other 3 groups were injected HM-3 with a high dose of 4.2 mg/kg, an intermediate dose of 2.1 mg/kg, a low doses of 1.05 mg/kg. Collected whole blood 0.5 ml once from the orbital venous plexus after 0.5 h, 1 h, 2 h, 3 h, 6 h, 12 h, 24 h, 48 h, 72 h, 96 h, 108 h, 132 h of drug administration, and applied heparin to get the effect of anti-coagulation. 12000 rpm/2 min centrifuged plasma. Draw supernatant 200 μl and 80° C. preheated PBS (0.05 M pH7.4) buffer 600 μl and mixed. Bath in the 80° C. water for 30 min. Centrifuged 2 min at 12000 rpm, and collected the supernatant, and stored in the condition of −20° C. Dissolved at room temperature, measured integrin antagonist peptide plasma concentration by ELISA.

[8] = high, 36.7 mg/kg, listed as polypeptide
[9] = intermediate, 18.75 mg/kg, listed as polypeptide
[10] = low, 9.38 mg/kg, listed as polypeptide

T2 sequence (P06756 31-889 limits assumed): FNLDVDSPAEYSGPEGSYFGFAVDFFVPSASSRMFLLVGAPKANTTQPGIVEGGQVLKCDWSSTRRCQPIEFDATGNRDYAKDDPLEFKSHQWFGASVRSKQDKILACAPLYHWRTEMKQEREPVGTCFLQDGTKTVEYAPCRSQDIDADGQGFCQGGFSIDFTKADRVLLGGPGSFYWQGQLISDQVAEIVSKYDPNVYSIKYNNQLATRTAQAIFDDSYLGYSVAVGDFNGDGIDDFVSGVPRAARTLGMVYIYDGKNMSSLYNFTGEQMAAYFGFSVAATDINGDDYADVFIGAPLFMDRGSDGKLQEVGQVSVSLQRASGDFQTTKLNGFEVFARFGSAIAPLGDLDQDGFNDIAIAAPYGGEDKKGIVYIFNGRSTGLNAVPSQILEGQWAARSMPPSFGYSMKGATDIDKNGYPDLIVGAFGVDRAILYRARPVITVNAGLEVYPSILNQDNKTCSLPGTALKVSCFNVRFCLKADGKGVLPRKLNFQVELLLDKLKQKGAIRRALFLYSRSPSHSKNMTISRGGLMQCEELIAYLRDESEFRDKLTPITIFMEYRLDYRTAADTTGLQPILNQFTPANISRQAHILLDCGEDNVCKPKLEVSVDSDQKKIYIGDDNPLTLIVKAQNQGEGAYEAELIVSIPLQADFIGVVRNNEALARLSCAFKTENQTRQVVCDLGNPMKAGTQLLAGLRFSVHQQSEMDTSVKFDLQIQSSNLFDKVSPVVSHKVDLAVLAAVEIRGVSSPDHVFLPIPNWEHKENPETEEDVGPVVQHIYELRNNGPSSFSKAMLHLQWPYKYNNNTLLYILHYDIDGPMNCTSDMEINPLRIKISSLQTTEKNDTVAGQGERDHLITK
T2 sequence (P06756 891-1048 partner limits assumed): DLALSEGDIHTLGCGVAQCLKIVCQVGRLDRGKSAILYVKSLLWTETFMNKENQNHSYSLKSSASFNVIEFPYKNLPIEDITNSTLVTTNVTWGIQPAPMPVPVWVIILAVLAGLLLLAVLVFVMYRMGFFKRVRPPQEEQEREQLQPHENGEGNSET
T2 sequence (P05106 27-788): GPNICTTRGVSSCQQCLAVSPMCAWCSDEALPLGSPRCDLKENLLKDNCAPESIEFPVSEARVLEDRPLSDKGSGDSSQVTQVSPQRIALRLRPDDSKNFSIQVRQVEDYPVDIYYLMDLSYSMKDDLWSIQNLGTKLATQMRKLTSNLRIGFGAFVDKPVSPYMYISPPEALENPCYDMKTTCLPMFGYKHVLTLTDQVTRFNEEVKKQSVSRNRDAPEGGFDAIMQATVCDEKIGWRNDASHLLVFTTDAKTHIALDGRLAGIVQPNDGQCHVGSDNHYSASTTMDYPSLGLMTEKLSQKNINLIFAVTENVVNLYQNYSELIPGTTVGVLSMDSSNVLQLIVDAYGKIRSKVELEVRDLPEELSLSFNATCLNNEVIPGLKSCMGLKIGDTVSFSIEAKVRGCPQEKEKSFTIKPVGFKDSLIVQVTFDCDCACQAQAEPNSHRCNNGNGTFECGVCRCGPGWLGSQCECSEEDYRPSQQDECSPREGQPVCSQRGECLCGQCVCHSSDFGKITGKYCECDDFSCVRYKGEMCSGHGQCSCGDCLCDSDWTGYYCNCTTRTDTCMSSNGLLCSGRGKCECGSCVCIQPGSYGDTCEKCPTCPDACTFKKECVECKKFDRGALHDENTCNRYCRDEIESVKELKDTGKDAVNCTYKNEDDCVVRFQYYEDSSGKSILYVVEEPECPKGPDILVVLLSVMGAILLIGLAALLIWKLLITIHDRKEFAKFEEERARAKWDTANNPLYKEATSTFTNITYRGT
T1 sequence (P08648 42-894 limits assumed): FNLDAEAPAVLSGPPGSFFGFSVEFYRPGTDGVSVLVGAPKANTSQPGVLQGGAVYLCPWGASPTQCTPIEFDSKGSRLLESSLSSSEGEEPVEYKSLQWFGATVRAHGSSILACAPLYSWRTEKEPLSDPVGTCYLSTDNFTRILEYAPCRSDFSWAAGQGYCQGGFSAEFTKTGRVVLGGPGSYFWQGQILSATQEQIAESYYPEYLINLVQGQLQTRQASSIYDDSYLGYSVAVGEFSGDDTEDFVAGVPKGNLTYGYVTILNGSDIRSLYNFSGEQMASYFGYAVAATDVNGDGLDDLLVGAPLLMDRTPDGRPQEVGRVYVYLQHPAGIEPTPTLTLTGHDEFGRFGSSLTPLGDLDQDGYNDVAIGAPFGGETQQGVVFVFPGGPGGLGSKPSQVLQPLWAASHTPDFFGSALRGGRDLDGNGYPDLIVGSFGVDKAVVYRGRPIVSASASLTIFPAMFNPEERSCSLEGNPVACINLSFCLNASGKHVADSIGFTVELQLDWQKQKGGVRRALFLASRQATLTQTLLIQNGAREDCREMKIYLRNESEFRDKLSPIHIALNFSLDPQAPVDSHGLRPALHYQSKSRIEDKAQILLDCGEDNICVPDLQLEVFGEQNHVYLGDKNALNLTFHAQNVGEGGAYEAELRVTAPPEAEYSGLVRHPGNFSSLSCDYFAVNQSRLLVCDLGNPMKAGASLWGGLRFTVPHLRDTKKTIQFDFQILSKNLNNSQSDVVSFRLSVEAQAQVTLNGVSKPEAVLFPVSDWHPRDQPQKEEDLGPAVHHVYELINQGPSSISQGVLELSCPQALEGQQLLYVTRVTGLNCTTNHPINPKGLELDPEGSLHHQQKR
T1 sequence (P08648 895-1049 partner limits assumed): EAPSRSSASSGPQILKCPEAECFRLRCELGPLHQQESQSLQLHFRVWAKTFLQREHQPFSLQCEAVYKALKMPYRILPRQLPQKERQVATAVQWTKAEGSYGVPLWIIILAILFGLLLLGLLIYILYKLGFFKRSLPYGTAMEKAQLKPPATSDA
T1 sequence (P05556 21-798): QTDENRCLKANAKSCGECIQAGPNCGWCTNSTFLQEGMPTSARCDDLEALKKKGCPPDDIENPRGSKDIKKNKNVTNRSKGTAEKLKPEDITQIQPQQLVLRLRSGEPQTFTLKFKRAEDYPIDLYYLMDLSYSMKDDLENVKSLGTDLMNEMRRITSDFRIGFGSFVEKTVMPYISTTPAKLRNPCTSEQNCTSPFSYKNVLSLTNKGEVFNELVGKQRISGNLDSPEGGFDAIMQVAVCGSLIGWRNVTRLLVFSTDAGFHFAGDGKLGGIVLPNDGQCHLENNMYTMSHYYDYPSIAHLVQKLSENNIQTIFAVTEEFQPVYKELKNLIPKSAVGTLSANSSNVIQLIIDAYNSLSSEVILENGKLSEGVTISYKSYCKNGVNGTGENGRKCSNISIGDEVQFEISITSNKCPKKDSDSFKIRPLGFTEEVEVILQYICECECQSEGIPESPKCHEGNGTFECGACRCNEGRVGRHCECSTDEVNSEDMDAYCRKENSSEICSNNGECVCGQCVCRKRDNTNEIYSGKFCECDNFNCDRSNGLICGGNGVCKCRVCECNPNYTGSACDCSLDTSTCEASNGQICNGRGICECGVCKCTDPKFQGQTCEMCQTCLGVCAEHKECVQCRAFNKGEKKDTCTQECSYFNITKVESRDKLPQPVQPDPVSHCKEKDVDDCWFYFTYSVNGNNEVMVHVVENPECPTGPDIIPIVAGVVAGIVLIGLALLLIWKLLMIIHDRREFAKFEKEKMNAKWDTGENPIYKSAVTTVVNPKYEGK

Substance: mPEG-SC20k-Ile-Val-Arg-Arg-Ala-Asp-Arg-Ala-Ala-Val-Pro-Gly-Gly-Gly-Gly-Arg-Gly-Asp ({mPEG‑SC20k}-IVRRADRAAVPGGGGRGD) [mPEG-SC20k-HM-3]
- binding to integrin α5β1 [1]: able to bind
- binding to integrin ανβ3 [2]: able to bind
- inhibition of tumor growth compared with negative control ([3]; 36.7 mg/kg, P<0.05): significant inhibition role
- Rate of inhibiting tumors ([3]; high, 36.7 mg/kg): 62.24%*
- Tumor weight ([3]; high, 36.7 mg/kg): 0.183 g
- Rate of inhibiting tumors [3, 8]: 62.24%
- Rate of inhibiting tumors ([3]; intermediate, 18.75 mg/kg): 55.66%
- Tumor weight ([3]; intermediate, 18.75 mg/kg): 0.318 g
- Rate of inhibiting tumors [3, 9]: 55.66%
- Rate of inhibiting tumors ([3]; low, 9.38 mg/kg): 50.16%
- Tumor weight ([3]; low, 9.38 mg/kg): 0.406 g
- Rate of inhibiting tumors [3, 10]: 50.16%
- inhibition of tumor growth compared with negative control ([4]; 36.7 mg/kg, P<0.05): significant inhibition role
- Rate of inhibiting tumors ([4]; high, 36.7 mg/kg): 55.11%*
- Tumor weight ([4]; high, 36.7 mg/kg): 0.424 g
- Rate of inhibiting tumors [4, 8]: 55.11%
- Rate of inhibiting tumors ([4]; intermediate, 18.75 mg/kg): 46.95%
- Tumor weight ([4]; intermediate, 18.75 mg/kg): 0.501 g
- Rate of inhibiting tumors [4, 9]: 46.95%
- Rate of inhibiting tumors ([4]; low, 9.38 mg/kg): 39.00%
- Tumor weight ([4]; low, 9.38 mg/kg): 0.576 g
- Rate of inhibiting tumors [4, 10]: 39.00%
- inhibition of tumor growth compared with negative control ([5]; 36.7 mg/kg, P<0.05): significant inhibition role
- Rate of inhibiting tumors ([5]; high, 36.7 mg/kg): 60.20%*
- Tumor weight ([5]; high, 36.7 mg/kg): 0.802 g
- Rate of inhibiting tumors [5, 8]: 60.20%
- Rate of inhibiting tumors ([5]; intermediate, 18.75 mg/kg): 51.32%
- Tumor weight ([5]; intermediate, 18.75 mg/kg): 0.981 g
- Rate of inhibiting tumors [5, 9]: 51.32%
- Rate of inhibiting tumors ([5]; low, 9.38 mg/kg): 50.99%
- Tumor weight ([5]; low, 9.38 mg/kg): 0.988 g
- Rate of inhibiting tumors [5, 10]: 50.99%
- inhibition of tumor growth compared with negative control ([6]; 36.7 mg/kg, P<0.05): significant inhibition role
- Rate of inhibiting tumors ([6]; high, 36.7 mg/kg): 55.98%*
- Tumor weight ([6]; high, 36.7 mg/kg): 0.493 g
- Rate of inhibiting tumors [6, 8]: 55.98%
- Rate of inhibiting tumors ([6]; intermediate, 18.75 mg/kg): 45.45%
- Tumor weight ([6]; intermediate, 18.75 mg/kg): 0.611 g
- Rate of inhibiting tumors [6, 9]: 45.45%
- Rate of inhibiting tumors ([6]; low, 9.38 mg/kg): 37.05%
- Tumor weight ([6]; low, 9.38 mg/kg): 0.705 g
- Rate of inhibiting tumors [6, 10]: 37.05%
- CL [7]: 0.118 mL/min/kg
